Tested on: Pseudomonas aeruginosa (ATCC 9027)
Test: agar well diffusion assay (antimicrobial activity)
Assay type: cell-based
Conditions: ATCC9027, 100 μl of 100 mg/ml solution per well, 37° C., 24 hours of incubation, mean of three readings, read-out: zone of inhibition (diameter)
Text: Pseudomonas aeruginosa (ATCC 9027) strain was used as test organisms. The culture media, Nutrient Agar (NA), Nutrient Broth (NB) and Czapek Yeast Extract Agar (CYA) used for the growth of microorganisms, were purchased from Hi-Media. All other chemicals, including organic solvents used for the extraction of the plant metabolites, were of analytical grade.
The AP Extract 2, SX Extract 2, OS Extract 2, AP Extract 1, SX Extract 1 and OS Extract 1 were separately dissolved in 100% aqueous dimethylsulfoxide (DMSO) to obtain a final concentration of 100 mg/ml for each extract. 100 mg/ml solution of Chloramphenicol was prepared and used as a Positive control. Antimicrobial activity of the above mentioned extracts was determined, using the agar well diffusion assay method (Perez et al., 1990). Approximately 20 ml of molten and cooled media (NA and CYA) were poured in sterilized Petri dishes. The plates were left overnight at room temperature to check for any contamination to appear. The test organism was grown in nutrient broth for 24 hours. […]
Agar wells of 5 mm diameter were prepared with the help of a sterilized stainless steel cork borer. […] The antimicrobial activity of the extracts was taken on the basis of diameter of zone of inhibition, which was measured at cross-angles after 24 hours of incubation and the mean of three readings for each extract.

O=C(N[C@H](CO)[C@H](O)c1ccc([N+](=O)[O-])cc1)C(Cl)Cl [positive standard, Chloramphenicol]
zone of inhibition at 100000 µg/mL: 40 mm

Source: patent publication US8808769B2, “Method for extraction of fractions containing pharmacologically active ingredients with less cytotoxicity from one or more plants” (Bioved Pharmaceuticals, Inc., priority 2009, dated 2014)
